# Experimental data published in publication PMC11435393, “Novel Pyrrole Derivatives as Multi-Target Agents for the Treatment of Alzheimer’s Disease: Microwave-Assisted Synthesis, In Silico Studies and Biological Evaluation” (Pharmaceuticals, 2024).
# Where “and” joins values, the source holds several entries; their conditions need not be identical. Equal values may be shown once. Where a name gives a salt, the structure may show the parent alone.
# Assays:
# [1] = PAMPA-BBB permeability test
# Description: Thus, the passive diffusion of vh0 was evaluated using an in vitro permeability test.
# The in vitro Parallel Artificial Permeability Assay—blood brain barrier (PAMPA-BBB) test was carried out by PAMPA Permeability Analyzer (pIONInc, Billerica, MA, USA). The permeabilities (Pe) of the dual-acting pyrrole-based hydrazide—vh0, were evaluated considering the manufacturer BBB Protocol. Initially, the stock solutions of vh0 and reference molecules were dissolved in DMSO and diluted with Prisma HT buffer pH 7.4 (Pion Inc. Billerica, MA, USA) to reach a concentration of 50 μM. The well plates were filled with 200 µL BSB (Brain Skin Buffer). The incubation was established for 4 h at 25 °C with no stirring. The permeability of the structures was evaluated by accessing their concentrations in both the donor and acceptor phases spectrophotometrically. The permeability coefficients were calculated by PAMPA Explorer Command Software and presented as –logPe.
# [2] = cited from earlier work
# [3] = DPPH radical scavenging assay; settings: 1 mg/mL, 517 nm
# Description: The test observes the hydrogen donating capacity of the molecules which is shown with a decrease in the absorbance at 517 nm. The DPPH radical scavenging activity of the title hydrazide vh0 and hydrazide–hydrazones vh1-4 was determined in 1 mg/mL concentration with Trolox applied as a standard.
# The radical scavenging activities of the title compounds were examined with a DPPH (2,2- diphenyl-1-picrylhydrazyl) test. A solution of DPPH has an intense violet color and a UV absorption at 515 nm could be observed. The presence of an antioxidant leads to visible decolorization of the sample and the absorption could be measured. Here, the scavenging rate of the DPPH radical was carried out by the widely employed classical protocol of Brand-Williams et al.. A 1 mg/mL of the title compounds were reacted with methonol solution of the DPPH (1 mmol/L). Thereafter, the obtained mixture was left in a dark palce for 15 min. The absorbance was assessed at 517 nm. Three measurements were conducted for each sample and Trolox was used as a standard.
# [4] = ABTS radical scavenging assay; settings: 1 mg/mL, 734 nm
# Description: The radical scavenging properties of the newly synthesized structures were also calculated with the help of a ABTS test according to a modified method of Arnao et al.. The tests were conducted in methanol at room temperature. The absorbance of the solutions was measured at λ = 734 nm. The stable ABTS radical was produced by mixing 7 mmol/L solution of ABTS and 2.4 mmol/L solution of potassium persulphate, which were allowed to react for 14 h in the dark at room temperature. The working solutions were made of 2 mL of the stock solution diluted in 50 mL of methanol with an absorbance of 0.30 ± 0.04 units at […]. In total, 1 mL of the ABTS working solution was allowed to react with the pyrrole derivatives with concentrations of 1 mg/mL for 10 min. The inhibition percentage was calculated by applying the same formula as the DPPH assay.
# [5] = biological target: T1, human recombinant MAOB (Homo sapiens, UniProt P27338); test: biochemical; assay type: biochemical; settings: for hMAOB inhibition (decrease of hMAOB activity vs control): 1 μM; for IC50: mean ± SD, 2 h exposure, read-out: IC50 (EC50) hMAOB
# T1 sequence (P27338 1-520): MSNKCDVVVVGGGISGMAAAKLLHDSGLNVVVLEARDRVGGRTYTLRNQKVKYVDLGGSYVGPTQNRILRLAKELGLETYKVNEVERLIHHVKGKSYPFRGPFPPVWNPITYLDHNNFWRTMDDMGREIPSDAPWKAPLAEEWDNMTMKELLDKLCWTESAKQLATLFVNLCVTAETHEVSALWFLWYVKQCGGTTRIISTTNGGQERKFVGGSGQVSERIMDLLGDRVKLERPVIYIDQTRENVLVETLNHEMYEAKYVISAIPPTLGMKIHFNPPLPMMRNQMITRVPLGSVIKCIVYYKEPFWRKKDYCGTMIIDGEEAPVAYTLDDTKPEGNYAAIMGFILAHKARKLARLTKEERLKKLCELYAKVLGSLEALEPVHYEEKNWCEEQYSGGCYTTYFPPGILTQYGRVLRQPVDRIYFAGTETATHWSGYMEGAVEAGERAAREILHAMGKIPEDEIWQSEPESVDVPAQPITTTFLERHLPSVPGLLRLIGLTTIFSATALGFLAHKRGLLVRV
# Description: The title compounds were tested for hMAOB activities by an in vitro method.
# (§1) The examined compounds were evaluated for possible inhibitory capacity on human recombinant MAOA and MAOB enzymes by using the Amplex UltraRed (Sigma Aldrih and Acros, Merck KGaA, Darmstadt, Germany) reagent with some modifications. All reagents were prepared in accordance with the producer’s instructions. As a substrate the tyramine hydrochloride was used for hMAO-B and p-benzylamine for hMAO-A. The reaction mixture included a stock solution of Amplex Red, the reaction buffer at pH 7.4 and the storage solution of horseradish peroxidase (10 U/mL). Five concentrations of the exam compounds were applied. The combination: compounds + hMAOA/B was placed in a 96-well plate, and then the plate was incubated for 30 min (dark, at 37 °C). The reaction was started by the addition of 50 μL of the mix solution: Amplex Red, horseradish peroxidase, and tyramine/p-benzylamine, as an enzyme substrate, in the reaction buffer. The fluorescence was measured every 30 min until 150 min, in dark, while shaking the reaction mixture at constant temperature of 37 °C. The fluorimetric measurements were assessed using a Synergy 2 Microplate Reader (BioTek, Winooski, VT, USA).
# (§2) The in vitro results (MAO-A, MAO-B and AChE inhibitory capacities) were expressed as a mean ± SD (n = 3). Values of p < 0.05 were considered statistically significant.
# [6] = biological target: T2, human recombinant MAOA (Homo sapiens, UniProt P21397); test: hMAOA enzyme assay (Amplex UltraRed, fluorimetric); assay type: biochemical; settings: mean ± SD; read-out: IC50 (EC50) hMAOA
# T2 sequence (P21397 1-527): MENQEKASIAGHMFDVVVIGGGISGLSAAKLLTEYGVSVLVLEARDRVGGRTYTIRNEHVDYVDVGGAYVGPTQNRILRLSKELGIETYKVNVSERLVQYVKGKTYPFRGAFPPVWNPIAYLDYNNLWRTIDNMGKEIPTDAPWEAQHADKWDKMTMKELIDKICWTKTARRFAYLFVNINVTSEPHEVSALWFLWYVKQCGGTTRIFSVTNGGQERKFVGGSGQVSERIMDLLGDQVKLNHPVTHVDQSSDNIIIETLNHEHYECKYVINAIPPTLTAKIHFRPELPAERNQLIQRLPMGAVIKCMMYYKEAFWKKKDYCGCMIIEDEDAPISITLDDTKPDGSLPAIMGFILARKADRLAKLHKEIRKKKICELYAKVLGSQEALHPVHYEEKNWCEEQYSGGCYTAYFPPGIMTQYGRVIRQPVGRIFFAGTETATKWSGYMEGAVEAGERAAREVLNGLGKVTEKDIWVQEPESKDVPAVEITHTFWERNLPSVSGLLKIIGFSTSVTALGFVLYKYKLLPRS
# Description: To observe the selectivity index of the title compounds, in vitro tests against MAO-A were carried out. The novel molecules were tested in the same concentrations as applied in the MAO-B evaluations—1 μM.
# as §1, §2
# [7] = biological target: eeAChE (Electrophorus electricus, UniProt O42275); test: biochemical; settings: for inhibition at 10 µM: read-out: AChE inhibition; for IC50 / IC50 (EC50) AChE: mean ± SD; for IC50: read-out: IC50 (EC50) AChE; for inhibition at 10 µM / AChE inhibition: 10 μM
# eeAChE, sequence (O42275 24-633): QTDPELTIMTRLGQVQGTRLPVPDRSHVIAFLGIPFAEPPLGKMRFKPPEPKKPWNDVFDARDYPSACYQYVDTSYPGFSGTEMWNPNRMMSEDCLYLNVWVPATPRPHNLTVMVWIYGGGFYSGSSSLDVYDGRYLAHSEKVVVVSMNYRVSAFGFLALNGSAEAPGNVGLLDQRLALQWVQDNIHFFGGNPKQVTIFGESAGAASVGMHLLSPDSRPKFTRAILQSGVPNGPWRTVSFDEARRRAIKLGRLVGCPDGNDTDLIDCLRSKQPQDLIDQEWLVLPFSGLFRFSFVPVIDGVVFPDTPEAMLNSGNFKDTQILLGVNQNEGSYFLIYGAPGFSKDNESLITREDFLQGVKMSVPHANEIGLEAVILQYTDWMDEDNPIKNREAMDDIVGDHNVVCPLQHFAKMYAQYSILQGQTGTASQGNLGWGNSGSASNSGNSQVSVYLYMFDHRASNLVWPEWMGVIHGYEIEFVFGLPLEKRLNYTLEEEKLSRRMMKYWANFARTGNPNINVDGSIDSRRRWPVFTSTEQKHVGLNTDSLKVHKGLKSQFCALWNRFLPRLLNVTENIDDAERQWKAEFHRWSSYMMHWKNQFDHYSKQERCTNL
# Description: The AChE potentials of the new valine-based molecules were evaluated according to a modified Ellman’s method. Initially, stock solutions (1 mg/mL) of the new structures were diluted in DMSO and five solutions were prepared by dilutions in order to access the inhibitory potential in different concentrations. Thereafter, the pyrrole-based molecules were incubated with sodium phosphate buffer, and AChE solution for ten minutes at 37 °C. The reaction was started by the addition of 5,5-dithio-bis-(2-nitrobenzoic acid) (DTNB) (10 mM; 20 μL) and acetylthiocholine iodide (14 mM; 20 μL). […] The percent inhibition activity was measured against the blank probe. Donepezil was utilized as a standart acetylcholinesterase inhibitor. The results were expressed as a mean ± SD (n = 3). Values of p < 0.05 were observed as statistically significant.
# as §2
Structure (SMILES),"PAMPA BBB −logPe ([1]; PAMPA, 4 h, 50 μM, pH 7.4)",PAMPA BBB −logPe Literature [2],DPPH radical scavenging activity [3] [%],ABTS radical-binding activity [4] [%],SI: hMAOB selectivity index = IC50(hMAO-A)/IC50(hMAO-B) [5],hMAOB inhibition (decrease of hMAOB activity vs control) [5],IC50 [5] [µM],IC50 [6] [µM],inhibition at 10 µM [7] [%],IC50 [7] [µM],BBB permeability class ([1]; PAMPA-BBB),"PAMPA BBB −logPe ([1]; pH 7.4, 50 μM, 4 h at 25 °C)",AChE inhibition [7],IC50 (EC50) AChE [7]
"CC(C)NCC(O)COc1cccc2ccccc12 (stereo not drawn) [Propranolol HCl, propranolol hydrochloride, reference compound]",4.949 ± 0.003,3.7,–,–,–,–,–,–,–,–,–,–,–,–
"Cc1c(C)c2c(c(C)c1O)CCC(C)(C(=O)O)O2 (stereo not drawn) [Trolox, reference compound]",–,–,90.07,100,–,–,–,–,–,–,–,–,–,–
CCOC(=O)c1cc(-c2ccc(Br)cc2)n(C(C(=O)NN)C(C)C)c1C (stereo not drawn) [vh0],–,–,76.10,99.40,>150,30%,0.665 ± 0.2,> 100,62,4.15 ± 1.31,medium (When 6 < –logPe < 5 the molecule is identified with a medium permeability),5.451 and 5.451 ± 0.005,–,–
CCOC(=O)c1cc(-c2ccc(Br)cc2)n(C(C(=O)N/N=C/c2ccc(Cl)cc2)C(C)C)c1C (stereo not drawn) [vh1],–,–,–,73.67,>134,moderate activity,0.744 ± 0.18,> 100,19,18.8 ± 0.91,–,–,–,–
CCOC(=O)c1cc(-c2ccc(Br)cc2)n(C(C(=O)N/N=C/c2cccc(F)c2)C(C)C)c1C (stereo not drawn) [vh2],–,–,–,–,>1,–,> 100,> 100,–,> 100,–,–,weak AChE blocking activity,inactive
CCOC(=O)c1cc(-c2ccc(Br)cc2)n(C(C(=O)N/N=C/c2ccc(OC)cc2)C(C)C)c1C (stereo not drawn) [vh3],–,–,–,58.27,>1,–,> 100,> 100,26,16.3 ± 2.15,–,–,weak AChE blocking activity,–
CCOC(=O)c1cc(-c2ccc(Br)cc2)n(C(C(=O)N/N=C/c2ccc(OC)cc2OC)C(C)C)c1C (stereo not drawn) [vh4],–,–,–,–,>1,–,> 100,> 100,–,> 100,–,–,–,inactive
